Experimental findings from patent US20260183276A1, “miRNA DYSREGULATION CORRECTION AS A STRATEGY TO TREAT HUNTINGTON'S DISEASE” (The Chinese University of Hong Kong, priority 2022, published 2026) are described below.

In this experiment the test system is EGFP-Htt1-550CAG89-expressing mouse primary cortical neurons. Description: Immunocytochemistry of synaptic markers and neurites, EGFP-Htt1-550CAG89-expressing primary cortical neurons. It is filed as cell-based. As to conditions: 400 nM BCH001, 72 hours. On the procedure: E16-embryos of C57BL6J wildtype mice were sacrificed to obtain the mouse primary cortical neurons as previously described (Peng et al., 2021). In brief, cortical lobes were dissected out in ice-cold PBS-glucose. Meninges were removed and cortices were digested in trypsin solution. Primary cortical neurons were cultured on poly-[…]-coated (0.05 mg/ml) glass coverslips in 24-well plates (50,000 cells per well) and maintained in a 37° C. humidified cell culture incubator supplemented with 5% CO2. Prior to transfection and drug treatment, neurons were cultured for 5 days. Mature primary neurons were transfected with DNA constructs together with Lipofectamine LTX and Plus Reagent (Thermo Fisher Scientific). Following the manufacturer's protocol, at 4 hours post-transfection culture medium was refreshed and 400 nM of BCH001 was added to the medium. Neurons were further incubated for 72 hours to allow recovery and ectopic expression. Neurons were fixed with 4% paraformaldehyde for 10 minutes, followed by permeabilization (0.2% Triton X-100) for another 10 minutes and blocking (1% BSA) for 1 hour at room temperature. Primary antibody incubation was performed in 1% BSA overnight at 4° C. After washing steps, neurons were incubated with secondary antibodies in 1% BSA in dark for 1 hour at room temperature. Samples were counterstained with 1 μg/ml 4,6-diamidino-2-phenylindole (DAPI) solution for nuclei visualization and then washed with PBS, followed by mounting and examined under a confocal microscope (Leica TCS SP8 high speed imaging system). To examine the neurite arborization and quantify the synaptic markers, primary neurons were stained with MAP2 (1:10,000; ab5392, Abcam) and Synapsin I (1:200; ab8, Abcam), Bassoon (1:200; ab110426, Abcam) or Homer1 (1:200; ab97593, Abcam) antibodies. The z stacked maximal projected images were used for statistical analyses using Photoshop 2020 (Adobe Systems). Ten EGFP-positive neurons per replica were used for the statistical analysis.

On to `CCOC(=O)c1cnc2ccc(OC(F)(F)F)cc2c1Nc1ccccc1C(=O)O` [BCH001], for which the “neurites (primary, secondary, tertiary)” value is given as “recovered to their control levels”; the “puncta number of Bassoon” value is listed as “restoration”; the “puncta number of Homer1” value was “restoration”; the “puncta number of Synapsin I” value was “restoration”. The synaptic defects result was “fully rescued”.
